Values of other authors, collected in US7098242B2, “Dihydroartemisinin and dihydroartemisitene dimers as anti-cancer and anti-infective agents” (The University of Mississippi, priority 2002, dated 2006).

Tests used:
[1] = system: malaria
[2] = system: chloroquine-sensitive and chloroquine-resistant strains of Plasmodium falciparum

## C[C@H]1[C@H](OC(=O)CCC(=O)[O-])O[C@@H]2O[C@@]3(C)CC[C@H]4[C@H](C)CC[C@@H]1[C@@]24OO3.[Na+] [sodium artesunate]
[1]
  activity relative to other artemisinin derivatives: more activity

## C[C@@H]1CC[C@H]2[C@@H](C)C(=O)O[C@@H]3O[C@@]4(C)CC[C@@H]1[C@]32OO4 [artemisinin]
[2]
  anti-malarial activity: anti-malarial activity against both chloroquine-sensitive and chloroquine-resistant strains
